From article PMC5374420, “In Search of Small Molecule Inhibitors Targeting the Flexible CK2 Subunit Interface” (Pharmaceuticals, 2017)
Where a SMILES comes first, the peptide text is derived from it. Bridges are numbered along the chain shown (N, C = ends).

What was measured:
Assay type in all cases: cell-based
[1] = system: WT MCF-10A cells; assay: Cell death / viability, LIVE&DEAD assay, WT cells
Experimental: Figure 8 Cellular effects of TAT-Pc 13. (A) MCF-10A cells were incubated with 25 µM of TAT-Pc 13 for 3 h and imaged with phase microscopy (upper panel) or with increasing concentrations of TAT-Pc 13 for 2 h and cell viability was evaluated using the LIVE&DEAD™ assay. Live cells fluoresce bright green (530 nm), whereas dead cells fluoresce red-orange (645 nm) (lower panel, scale bare: 100 µm); (B) WT (○-○) or CK2β-depleted (●-●) MCF-10A cells were incubated for 4 h with increasing concentrations of TAT-Pc 13 and cell death was evaluated using the LIVE&DEAD™ assay recording fluorescence at 645 nm. Representative data shown from two independent experiments in duplicate; (C) MCF-10A cells were pre-treated in the absence or presence of 20 µM z-VAD for 5 h and then incubated for 4 h with 25 µM random TAT-Pc 13 or TAT-Pc 13 and cell viability was evaluated as in (A) (scale bare: 100 µm); and (D) intracellular events induced by increasing concentrations of TAT-Pc 13. After 12 h of treatment, 786-O cells were lysed and analyzed by Western blot. TEXT PRINTED IN THE PICTURE: (B) TAT-Pc 13: TAT-Pc 13 (μM): 48; TAT-Pc 13 (μM): 60 DOUBTS OF THE COPYIST ABOUT THIS PICTURE: Panel B: 48 and 60 are printed in red at the x axis, where dashed lines drop from the two curves at about 50 on the Cell death (%) axis. No measure name (e.g. IC50) is printed with them.
Cells were seeded in 96-well microtiter plates at a concentration of 1 × 10^5 cells/mL and were allowed to attach for 24 h at 37 °C in 5% CO2. Cells were then exposed to different concentrations of TAT-Pc 13 for the indicated time. Cell viability was evaluated using the fluorescence-based LIVE&DEAD™ assay (Molecular Probes, Thermo Fisher Scientific, Courtaboeuf, France) according to the manufacturer. Images were taken with an Apotome-equipped Zeiss Axioimager microscope (Zeiss, Oberkochen, German) recording the fluorescence at 530 nm (Live cells) and 645 nm (dead cells) respectively using a FluoStar Optima plate reader (BMG LabTech, Ortenberg, Germany).

[2] = system: HeLa; assay: Cell death of cancerous cell line, PrestoBlue assay; conditions: 6 h, increasing concentrations (Figure S1)
Experimental: (§1) Alternatively, cell viability was measured using the PrestoBlue® assay (Invitrogen, Carlsbad, CA, USA). The microtiter plates containing the treated cells were incubated for 1 h with 10 µL PrestoBlue. The fluorescence was recorded at 580 nm using a FluoStar Optima plate reader (BMG LabTech, Ortenberg, Germany).
(§2) Supplementary Materials: In Search of Small
(§3) Molecule Inhibitors Targeting the Flexible CK2
(§4) Benoit Bestgen, Zakia Belaid-Choucair, Thierry Lomberget, Marc Le Borgne, Odile Filhol […]
(§5) Figure S1. Cellular effects of TAT-Pc 13. (A) MDA MB-231 cells (⦁-⦁) or HeLa cells (○-○) were incubated for 6 h with increasing concentrations of TAT-Pc 13 and cell death was measured using the PrestoBlue assay as described in Material and Methods; (B) 786-O cells were treated for 12 h with increasing concentrations of CX-4945, lysed and analyzed by Western blot; (C) 786-O cells were treated with 20 µM TAT-Pc 13 or 5 µM CX-4945 and immunostained for p21 expression.
(§6) Figure 2. Inhibition of TAT-Pc-induced cell death. MCF-10A cells were pre-treated in the absence (CTRL) or presence of 20 µM z-VAD or 30 µM Necrostatin-1 or 20 µM z-VAD + 30 µM Necrostatin-1 for 5 h and then incubated for 4 h with 25 µM random TAT-Pc 13 or TAT-Pc 13 and cell viability was evaluated as in Figure 8A. […]

[3] = system: MDA MB-231; assay: as above; conditions: 6 h, increasing concentrations (Figure S1)
Experimental: as §1, §2, §3, §4, §5, §6

[4] = both WT and CK2β-depleted MCF-10A cells, 4 h

## CC[C@H](C)[C@@H]1NC(=O)[C@H](CCCCN)NC(=O)[C@H](Cc2ccccc2)NC(=O)CNC(=O)[C@H](Cc2ccc(O)cc2)NC(=O)[C@H](CC(C)C)NC(=O)[C@H](CCCNC(=N)N)NC(=O)CNC(=O)CNC(=O)[C@@H](NC(=O)[C@H](CCC(N)=O)NC(=O)[C@@H]2CCCN2C(=O)[C@@H]2CCCN2C(=O)[C@H](CCCNC(=N)N)NC(=O)[C@H](CCCNC(=N)N)NC(=O)[C@H](CCCNC(=N)N)NC(=O)[C@H](CCC(N)=O)NC(=O)[C@H](CCCNC(=N)N)NC(=O)[C@H](CCCNC(=N)N)NC(=O)[C@H](CCCCN)NC(=O)[C@H](CCCCN)NC(=O)[C@H](CCCNC(=N)N)NC(=O)CN)CCCCNC(=O)CNC(=O)CNC(=O)[C@H](Cc2c[nH]cn2)NC1=O [TAT-Pc 13] (H-GRKKRRQRRRPPQKGGRLYGFKIHGG; lactam 14-C; N-terminus assumed)
[1]; [4]
  concentration at which cell death became massive: 50 to 60 µM
  concentration at which cell death was already detectable: 25 µM
[1]; three hours after addition, 25 µM (Figure 8A), phase microscopy
  cells rounded up and shrank: more than 50%
[2]
  induction of cell death: induce cell death
[3]
  induction of cell death: induce cell death
